Experimental findings from patent publication US12533348B2, “Ferroportin-inhibitors for the use in the treatment of transfusion-dependent beta-thalassemia (TDT)” (Vifor (International) AG, priority 2019, dated 2026) are described below.

Each structure is given as a SMILES string. Entries after “also recorded” stand apart in the source; their conditions may differ.

The test system of experiment [1] is Hbb^th3/+ mice. Description: ROS levels in mature RBCs of Hbb^th3/+ mice, oral dosing 60 mg/kg twice daily, no BT. Format: in vivo, mouse.
For experiment [2], the system named is Hbb^th3/+ mice. Nature of the experiment: Erythrocyte membrane-associated α-globin detection and quantification (TAU gel electrophoresis, densitometry). Format: in vivo, mouse. The following applies: Hbb^th3/+ animals vs vehicle-treated; TAU gel electrophoresis (FIG. 1). The source says:
Fresh EDTA-blood samples of mice from each group were pooled (blood from 2 mice/pool), lysed, and membrane lipids were extracted, as previously described (Sorensen S, Rubin E, Polster H, Mohandas N, Schrier S. “The role of membrane skeletal-associated alpha-globin in the pathophysiology of beta-thalassemia.” Blood. 1990 Mar. 15; 75(6):1333-6). The insoluble membrane fraction was separated by electrophoresis on triton acetic acid urea (TAU) gels and visualized by Coomassie staining (Alter B et al, Br J Haematol 44:527, 1980). The signal intensity of the α-globin bands was quantified by densitometry using LAS-4000 Image Analyzer with Multi Gauge v.3 software (GE Healthcare Life Sciences).
Blood samples are washed three times with ice cold DPBS in the presence of 1 mM EDTA and lysed in an ice-cold hypotonic lysis buffer (5 mM sodium phosphate, pH 7.6 containing Complete Ultra protease inhibitors, Roche). The soluble Hb is collected to serve as standard on the gel. The erythrocyte ghosts are further washed three times by resuspending in hypotonic lysis buffer and centrifugation at 21'000×g. Membrane lipids are extracted in 50 mM sodium borate pH 8, 1 mM EDTA, 0.5% Triton X-100 (Sigma-Aldrich) and protease inhibitors. […]

Experiment [3] relates to C57BL/6 WT mice. Nature of the experiment: Serum iron in C57BL/6 WT mice (previous study). Format: in vivo, mouse. As to conditions: C57BL/6 WT mice dosed with 120 mg/kg for 20 h.
Experiment [4] relates to rats. Description: Serum iron after a single oral dose in rats. The experiment is classed as in vivo, rat. As to conditions: single oral dose of 100 mg/kg in rats.

Regarding `O=C(NCc1ncccc1F)c1coc(CCNCCc2nc3ccccc3[nH]2)n1` [Fpn127], the “ROS levels in RBCs” value was “decreased ROS levels; also recorded: further decreased” in experiment [1] (15 days of oral dosing 60 mg/kg twice daily (FIG. 2B), 60 mg/kg) and “decreased ROS levels” in experiment [1] (day 8 of oral dosing 60 mg/kg twice daily (FIG. 2A)). In addition, in experiment [2], the “levels of toxic α-globin/heme aggregates in RBC membrane skeleton preparations” value is on record as “significant dose-dependent decrease”. In addition, in experiment [3], the “serum iron in WT mice” value was “restored to the baseline levels”. Besides, the “duration of reduction in serum iron” value in experiment [4] is “at least 8 h”.
